Species: Rattus norvegicus
Test: DrugMatrix - Regimen: Daily Repeat
Type: toxicity, organism-based, Sprague-Dawley
Design: regimen Daily Repeat, gender Male, age 6-8 weeks
Settings: in vivo, po, route oral GAVAGE, vehicle .5 % CMC; for ABSOLUTE BASOPHIL / ABSOLUTE EOSINOPHIL / ABSOLUTE LYMPHOCYTE / ABSOLUTE MONOCYTE / ABSOLUTE SEGMENTED NEUTROPHIL / BASOPHIL / EOSINOPHIL / ERYTHROCYTE COUNT / HEMATOCRIT / HEMOGLOBIN / LEUKOCYTE COUNT / LYMPHOCYTE / MEAN CORPUSCULAR HEMOGLOBIN / MEAN CORPUSCULAR HEMOGLOBIN CONCENTRATION / MEAN CORPUSCULAR VOLUME / MONOCYTE / NEUTROPHIL / NUCLEATED RED BLOOD CELLS / PLATELET COUNT: tissue Blood; for ALANINE AMINOTRANSFERASE / ALBUMIN / ALKALINE PHOSPHATASE / ASPARTATE AMINOTRANSFERASE / BLOOD UREA NITROGEN / CARBON DIOXIDE / CHLORIDE / CHOLESTEROL / CREATINE PHOSPHOKINASE / CREATININE / GLUCOSE / LACTATE DEHYDROGENASE / LIPASE / PHOSPHORUS / POTASSIUM / SODIUM / TOTAL BILIRUBIN / TOTAL PROTEIN / URIC ACID: tissue Plasma
[1] = 30 mg/kg, 120 h, dose level Low, time 5 day
[2] = 2000 mg/kg, 72 h, dose level High, time 3 day
[3] = 2000 mg/kg, 120 h, dose level High, time 5 day

## CCOc1cc(N)c(Cl)cc1C(=O)NCC1CN(Cc2ccc(F)cc2)CCO1 (centres undefined) [MOSAPRIDE]
[1]
  ABSOLUTE BASOPHIL: 0 CELLS/uL
  ABSOLUTE EOSINOPHIL: 184 CELLS/uL
  ABSOLUTE LYMPHOCYTE: 14085.33 CELLS/uL
  ABSOLUTE MONOCYTE: 124 CELLS/uL
  ABSOLUTE SEGMENTED NEUTROPHIL: 940 CELLS/uL
  BASOPHIL: 0%
  EOSINOPHIL: 1.33%
  ERYTHROCYTE COUNT: 5.58 x10E6/uL
  HEMATOCRIT: 33.97%
  HEMOGLOBIN: 13.4 G/DL
  LEUKOCYTE COUNT: 15.33 x10E3/uL
  LYMPHOCYTE: 91.33%
  MEAN CORPUSCULAR HEMOGLOBIN: 24.07 pg
  MEAN CORPUSCULAR HEMOGLOBIN CONCENTRATION: 39.43 G/DL
  MEAN CORPUSCULAR VOLUME: 61 fL
  MONOCYTE: 1%
  NEUTROPHIL: 6.33%
  NUCLEATED RED BLOOD CELLS: 0 /100WBC
  PLATELET COUNT: 1230 x10E3/uL
  ALANINE AMINOTRANSFERASE: 47 u/L
  ALBUMIN: 4.27 G/DL
  ALKALINE PHOSPHATASE: 395.67 u/L
  ASPARTATE AMINOTRANSFERASE: 103 u/L
  BLOOD UREA NITROGEN: 14.67 mg/dL
  CARBON DIOXIDE: 21.33 mmol/L
  CHLORIDE: 104.33 MEQ/L
  CHOLESTEROL: 72.33 mg/dL
  CREATINE PHOSPHOKINASE: 763 u/L
  CREATININE: 0.22 mg/dL
  GLUCOSE: 150.33 mg/dL
  LACTATE DEHYDROGENASE: 650.33 u/L
  LIPASE: 9.67 u/L
  PHOSPHORUS: 11.1 mg/dL
  POTASSIUM: 5.84 MEQ/L
  SODIUM: 144.4 MEQ/L
  TOTAL BILIRUBIN: 0.23 mg/dL
  TOTAL PROTEIN: 5.97 G/DL
  URIC ACID: 1.73 mg/dL
[2]
  ABSOLUTE BASOPHIL: 0 CELLS/uL
  ABSOLUTE EOSINOPHIL: 82 CELLS/uL
  ABSOLUTE LYMPHOCYTE: 11383.33 CELLS/uL
  ABSOLUTE MONOCYTE: 248.67 CELLS/uL
  ABSOLUTE SEGMENTED NEUTROPHIL: 719.33 CELLS/uL
  BASOPHIL: 0%
  EOSINOPHIL: 0.67%
  ERYTHROCYTE COUNT: 6.66 x10E6/uL
  HEMATOCRIT: 42.47%
  HEMOGLOBIN: 16.67 G/DL
  LEUKOCYTE COUNT: 12.43 x10E3/uL
  LYMPHOCYTE: 91.33%
  MEAN CORPUSCULAR HEMOGLOBIN: 25.07 pg
  MEAN CORPUSCULAR HEMOGLOBIN CONCENTRATION: 39.27 G/DL
  MEAN CORPUSCULAR VOLUME: 63.83 fL
  MONOCYTE: 2%
  NEUTROPHIL: 6%
  NUCLEATED RED BLOOD CELLS: 0 /100WBC
  PLATELET COUNT: 1265 x10E3/uL
  ALANINE AMINOTRANSFERASE: 92.67 u/L
  ALBUMIN: 4.43 G/DL
  ALKALINE PHOSPHATASE: 485 u/L
  ASPARTATE AMINOTRANSFERASE: 204 u/L
  BLOOD UREA NITROGEN: 18 mg/dL
  CARBON DIOXIDE: 19 mmol/L
  CHLORIDE: 95 MEQ/L
  CHOLESTEROL: 234.67 mg/dL
  CREATINE PHOSPHOKINASE: 2551 u/L
  CREATININE: 0.29 mg/dL
  GLUCOSE: 119.67 mg/dL
  LACTATE DEHYDROGENASE: 1110.67 u/L
  LIPASE: 14.67 u/L
  PHOSPHORUS: 14.47 mg/dL
  POTASSIUM: 7.66 MEQ/L
  SODIUM: 141.13 MEQ/L
  TOTAL BILIRUBIN: 0.47 mg/dL
  TOTAL PROTEIN: 6.5 G/DL
  URIC ACID: 2.7 mg/dL
[3]
  ABSOLUTE BASOPHIL: 0 CELLS/uL
  ABSOLUTE EOSINOPHIL: 63.33 CELLS/uL
  ABSOLUTE LYMPHOCYTE: 17542.67 CELLS/uL
  ABSOLUTE MONOCYTE: 192.67 CELLS/uL
  ABSOLUTE SEGMENTED NEUTROPHIL: 1468 CELLS/uL
  BASOPHIL: 0%
  EOSINOPHIL: 0.33%
  ERYTHROCYTE COUNT: 6.35 x10E6/uL
  HEMATOCRIT: 38.03%
  HEMOGLOBIN: 14.87 G/DL
  LEUKOCYTE COUNT: 19.27 x10E3/uL
  LYMPHOCYTE: 91%
  MEAN CORPUSCULAR HEMOGLOBIN: 23.37 pg
  MEAN CORPUSCULAR HEMOGLOBIN CONCENTRATION: 39.1 G/DL
  MEAN CORPUSCULAR VOLUME: 59.8 fL
  MONOCYTE: 1%
  NEUTROPHIL: 7.67%
  NUCLEATED RED BLOOD CELLS: 0 /100WBC
  PLATELET COUNT: 1370.33 x10E3/uL
  ALANINE AMINOTRANSFERASE: 101.67 u/L
  ALBUMIN: 4.07 G/DL
  ALKALINE PHOSPHATASE: 465 u/L
  ASPARTATE AMINOTRANSFERASE: 89.67 u/L
  BLOOD UREA NITROGEN: 18.33 mg/dL
  CARBON DIOXIDE: 25.67 mmol/L
  CHLORIDE: 100 MEQ/L
  CHOLESTEROL: 227.67 mg/dL
  CREATINE PHOSPHOKINASE: 489.33 u/L
  CREATININE: 0.22 mg/dL
  GLUCOSE: 124.33 mg/dL
  LACTATE DEHYDROGENASE: 134 u/L
  LIPASE: 12.67 u/L
  PHOSPHORUS: 12.77 mg/dL
  POTASSIUM: 6.56 MEQ/L
  SODIUM: 145.37 MEQ/L
  TOTAL BILIRUBIN: 0.2 mg/dL
  TOTAL PROTEIN: 6.2 G/DL
  URIC ACID: 1.77 mg/dL

— ChEMBL document CHEMBL3885881, “DrugMatrix”
